The numbers were not newly measured in patent publication US20090239757A1, “Control Sequences Responding to AMP and Uses Thereof” (priority 2004, published 2009), which cites them from elsewhere.

Residues, ends and D or L forms follow the SMILES beside them.

In the series the test system is Gram-positive and Gram-negative bacteria. The following applies: U.S. Pat. No. 6,492,328; cited from earlier work.

Regarding `CC[C@H](C)[C@H](NC(=O)CNC(=O)[C@H](CCCCN)NC(=O)[C@H](CCCNC(=N)N)NC(=O)[C@@H](NC(=O)[C@@H](NC(=O)[C@H](CCCNC(=N)N)NC(=O)[C@H](CCCNC(=N)N)NC(=O)[C@H](CC(C)C)NC(=O)[C@H](CC(N)=O)NC(=O)[C@@H](N)CCCCN)[C@@H](C)CC)[C@@H](C)CC)C(=O)N[C@@H](Cc1c[nH]cn1)C(=O)N[C@H](C(=O)N[C@H](C(=O)N[C@@H](CCCCN)C(=O)N[C@@H](CCCCN)C(=O)N[C@@H](Cc1ccc(O)cc1)C(=O)NCC(=O)O)[C@@H](C)CC)[C@@H](C)CC` [Novispirin G10] (H-KNLRRIIRKGIHIIKKYG-OH; N-terminus assumed), the antimicrobial activity entry was “activity against both Gram-positive and Gram-negative bacteria”.
